Measurements reported in US12030904B2 (priority 2020, dated 2024).
Read-outs that look alike come from different tables or passages of the source.

How the values were obtained:
[1] = test system: Recombinant Respiratory Syncytial virus strain A2 containing the firefly luciferase reporter (RSV-Fluc); assay: microbe, parasite or virus in culture; assay type: cell-based; details: human respiratory syncytial virus, NHBE
SARS-CoV-2 = assay: microbe, parasite or virus in culture; assay type: cell-based; details: Severe acute respiratory syndrome coronavirus 2, read-out: SARS EC50
MT4 cytotoxicity (CC50) = details: human, MT4 cells
[2] = 72 h, read-out: RSV-Fluc EC50 (NHBE), NHBE cells, three days, Table 2

Compound	EC50 [1, 2] [nM]	EC50 ([1]; read-out: RSV EC50, Table 2a) [nM]	EC50 (SARS-CoV-2) [nM]	CC50 (MT4 cytotoxicity (CC50); MT4 CC50, Table 2a) [nM]	EC50 ([1]; read-out: RSV EC50, Table 4) [nM]	CC50 (MT4 cytotoxicity (CC50); MT4 CC50, Table 4) [nM]
CCCCCCCCCCCCCCCCCCOC[C@H](COP(=O)(O)OC[C@H]1O[C@@](C#N)(c2ccc3c(N)ncnn23)[C@H](O)[C@@H]1O)OCc1ccccc1F [Example 42, ((2R,3S,4R,5R)-5-(4-aminopyrrolo[2,1-f][1,2,4]triazin-7-yl)-5-cyano-3,4-dihydroxytetrahydrofuran-2-yl)methyl ((R)-2-((2-fluorobenzyl)oxy)-3-(octadecyloxy)propyl) hydrogen phosphate]	35	36	593	2220		
CCCCCCCCCCCCCCCCCOCCCOP(=O)(O)OC[C@H]1O[C@@](C#N)(c2ccc3c(N)ncnn23)[C@H](O)[C@@H]1O [Example 55, ((2R,3S,4R,5R)-5-(4-aminopyrrolo[2,1-f][1,2,4]triazin-7-yl)-5-cyano-3,4-dihydroxytetrahydrofuran-2-yl)methyl (3-(heptadecyloxy)propyl) hydrogen phosphate]		86	9420	29900		
CCCCCCCCCCCCCCCCCCOC[C@H](COP(=O)(O)OC[C@H]1O[C@@](C#N)(c2ccc3c(N)ncnn23)[C@H](O)[C@@H]1O)OC(C)C [Example 47, ((2R,3S,4R,5R)-5-(4-aminopyrrolo[2,1-f][1,2,4]triazin-7-yl)-5-cyano-3,4-dihydroxytetrahydrofuran-2-yl)methyl ((R)-2-isopropoxy-3-(octadecyloxy)propyl) hydrogen phosphate]	300	297	1080	7870		
CCCCCCCCCCCCCCCCCCOC[C@H](COP(=O)(O)OC[C@H]1O[C@@](C#N)(c2ccc3c(N)ncnn23)[C@H](O)[C@@H]1O)n1cc(C#N)nn1 [Example 81, ((2R,3S,4R,5R)-5-(4-aminopyrrolo[2,1-f][1,2,4]triazin-7-yl)-5-cyano-3,4-dihydroxytetrahydrofuran-2-yl)methyl ((R)-2-(4-cyano-1H-1,2,3-triazol-1-yl)-3-(octadecyloxy)propyl) hydrogen phosphate]			1900		68	31100
CCCCCCCCCCCCCCCCCCOC[C@](C)(COP(=O)(O)OC[C@H]1O[C@@](C#N)(c2ccc3c(N)ncnn23)[C@H](O)[C@@H]1O)OCc1ccccc1 [Example 21, ((2R,3S,4R,5R)-5-(4-aminopyrrolo[2,1-f][1,2,4]triazin-7-yl)-5-cyano-3,4-dihydroxytetrahydrofuran-2-yl)methyl ((R)-2-(benzyloxy)-2-methyl-3-(octadecyloxy)propyl) hydrogen phosphate]	76	77	1740	50000		
CCCCCCCC/C=C\CCCCCCCCOC[C@H](COP(=O)(O)OC[C@H]1O[C@@](C#N)(c2ccc3c(N)ncnn23)[C@H](O)[C@@H]1O)OCc1ccc(C#N)cc1F [Example 129, ((2R,3S,4R,5R)-5-(4-aminopyrrolo[2,1-f][1,2,4]triazin-7-yl)-5-cyano-3,4-dihydroxytetrahydrofuran-2-yl)methyl ((R)-2-((4-cyano-2-fluorobenzyl)oxy)-3-(((Z)-octadec-9-en-1-yl)oxy)propyl) hydrogen phosphate]			110		22	2430
CCCCCCCCCCCCCCCCOC[C@H](COP(=O)(O)OC[C@H]1O[C@@](C#N)(c2ccc3c(N)ncnn23)[C@H](O)[C@@H]1O)OCc1ccc(C#N)c(F)c1 [Example 113, [(2R,3S,4R,5R)-5-(4-aminopyrrolo[2,1-f][1,2,4]triazin-7-yl)-5-cyano-3,4-dihydroxy-tetrahydrofuran-2-yl]methyl [(2R)-2-[(4-cyano-3-fluoro-phenyl)methoxy]-3-hexadecoxy-propyl] hydrogen phosphate]			1100		210	5450
CCCCCCCCCCCCCCCCCCOC[C@H](COP(=O)(O)OC[C@H]1O[C@@](C#N)(c2ccc3c(N)ncnn23)[C@H](O)[C@@H]1O)OCc1ccc(Cl)cc1 [Example 41, ((2R,3S,4R,5R)-5-(4-aminopyrrolo[2,1-f][1,2,4]triazin-7-yl)-5-cyano-3,4-dihydroxytetrahydrofuran-2-yl)methyl ((R)-2-((4-chlorobenzyl)oxy)-3-(octadecyloxy)propyl) hydrogen phosphate]	52	52	174	2410		
CCCCCCCCCCCCCCCCCOC[C@H](COP(=O)(O)OC[C@H]1O[C@@](C#N)(c2ccc3c(N)ncnn23)[C@H](O)[C@@H]1O)OCc1ccc(OC)cc1 [Example 37, ((2R,3S,4R,5R)-5-(4-aminopyrrolo[2,1-f][1,2,4]triazin-7-yl)-5-cyano-3,4-dihydroxytetrahydrofuran-2-yl)methyl ((R)-3-(heptadecyloxy)-2-((4-methoxybenzyl)oxy)propyl) hydrogen phosphate]		39	371	1580		
CCCCCCCCCCCCCCCCCCOC[C@H](COP(=O)(O)OC[C@H]1O[C@@](C#N)(c2ccc3c(N)ncnn23)[C@H](O)[C@@H]1O)OCc1ccc2c(c1)CCC2 [Example 52, ((2R,3S,4R,5R)-5-(4-aminopyrrolo[2,1-f][1,2,4]triazin-7-yl)-5-cyano-3,4-dihydroxytetrahydrofuran-2-yl)methyl ((R)-2-((2,3-dihydro-1H-inden-5-yl)methoxy)-3-(octadecyloxy)propyl) hydrogen phosphate]		125	487	17900		
CCCCCCCCCCCCCCCCOCCCOP(=O)(O)OC[C@H]1O[C@@](C#N)(c2ccc3c(N)ncnn23)[C@H](O)[C@@H]1O [Example 60, ((2R,3S,4R,5R)-5-(4-Aminopyrrolo[2,1-f][1,2,4]triazin-7-yl)-5-cyano-3,4-dihydroxytetrahydrofuran-2-yl)methyl (3-(hexadecyloxy)propyl) hydrogen phosphate]	73	73	6950	25800		
CCCCCCCCCCCCCCCCCCOC[C@H](COP(=O)(O)OC[C@H]1O[C@@](C#N)(c2ccc3c(N)ncnn23)[C@H](O)[C@@H]1O)OCc1cc(C#N)ccc1OC [Example 104, [(2R,3S,4R,5R)-5-(4-Aminopyrrolo[2,1-f][1,2,4]triazin-7-yl)-5-cyano-3,4-dihydroxy-tetrahydrofuran-2-yl]methyl [(2R)-2-[(5-cyano-2-methoxy-phenyl)methoxy]-3-octadecoxy-propyl] hydrogen phosphate]			1300		222	2550
CCCCCCCCCCCCCCCCCCOC[C@H](COP(=O)(O)OC[C@H]1O[C@@](C#N)(c2ccc3c(N)ncnn23)[C@H](O)[C@@H]1O)Oc1ccc(C#N)nc1 [Example 78, ((2R,3S,4R,5R)-5-(4-aminopyrrolo[2,1-f][1,2,4]triazin-7-yl)-5-cyano-3,4-dihydroxytetrahydrofuran-2-yl)methyl ((R)-2-((6-cyanopyridin-3-yl)oxy)-3-(octadecyloxy)propyl) hydrogen phosphate]			33		7	133
CCCCCCCC/C=C/CCCCCCCCOC[C@H](COP(=O)(O)OC[C@H]1O[C@@](C#N)(c2ccc3c(N)ncnn23)[C@H](O)[C@@H]1O)OCc1cc(F)cc(C#N)c1 [Example 126, ((2R,3S,4R,5R)-5-(4-aminopyrrolo[2,1-f][1,2,4]triazin-7-yl)-5-cyano-3,4-dihydroxytetrahydrofuran-2-yl)methyl ((R)-2-((3-cyano-5-fluorobenzyl)oxy)-3-(((E)-octadec-9-en-1-yl)oxy)propyl) hydrogen phosphate]			140		30	366
CCCCCCCCCCCCCCCCCCOC[C@H](COP(=O)(O)OC[C@H]1O[C@@](C#N)(c2ccc3c(N)ncnn23)[C@H](O)[C@@H]1O)OCc1cnc(C(F)(F)F)nc1 [Example 122, [(2R,3S,4R,5R)-5-(4-Aminopyrrolo[2,1-f][1,2,4]triazin-7-yl)-5-cyano-3,4-dihydroxy-tetrahydrofuran-2-yl]methyl [(2R)-3-octadecoxy-2-[[2-(trifluoromethyl)pyrimidin-5-yl]methoxy]propyl] hydrogen phosphate]			450		39	995
CCCCCCCCCCCCCCCCOC[C@H](COP(=O)(O)OC[C@H]1O[C@@](C#N)(c2ccc3c(N)ncnn23)[C@H](O)[C@@H]1O)OCCCCCCCCCCCCCCCC [Example 61, ((2R,3S,4R,5R)-5-(4-Aminopyrrolo[2,1-f][1,2,4]triazin-7-yl)-5-cyano-3,4-dihydroxytetrahydrofuran-2-yl)methyl ((R)-2,3-bis(hexadecyloxy)propyl) hydrogen phosphate]	4500	4540	10000	50000		
CCCCCCCCCCCCCCCCCCOC[C@H](COP(=O)(O)OC[C@H]1O[C@@](C#N)(c2ccc3c(N)ncnn23)[C@H](O)[C@@H]1O)OCc1ccc(C(F)F)cc1 [Example 33, ((2R,3S,4R,5R)-5-(4-aminopyrrolo[2,1-f][1,2,4]triazin-7-yl)-5-cyano-3,4-dihydroxytetrahydrofuran-2-yl)methyl ((R)-2-((4-(difluoromethyl)benzyl)oxy)-3-(octadecyloxy)propyl) hydrogen phosphate]		77	3020	8850		
CCCCCCCCCCCCCCCCCOC[C@H](COP(=O)(O)OC[C@H]1O[C@@](C#N)(c2ccc3c(N)ncnn23)[C@H](O)[C@@H]1O)OCc1ccc(C#N)c(F)c1 [Example 94, ((2R,3S,4R,5R)-5-(4-aminopyrrolo[2,1-f][1,2,4]triazin-7-yl)-5-cyano-3,4-dihydroxytetrahydrofuran-2-yl)methyl ((R)-2-((4-cyano-3-fluorobenzyl)oxy)-3-(heptadecyloxy)propyl) hydrogen phosphate]			38		38	273
